Common to all, as to assay type: biochemical
One assay concerns the target T1, KDR (Homo sapiens, UniProt P35968).
T1 construct: expressed in transfected cells; host or cells: CHO cells
The assay is described as follows: Inhibitory activity against KDR (VEGF-R2), in vitro data of Examples 170 and 207. The note with it: 10 μM; Examples 171 to 206; read-out: KDR inhibition at 10 μM. In a few lines: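 KDR tyrosine phosphorylation detected by luminescence after overnight 4° C capture of 20 μg lysate protein with PY20:AP antibody. Lysates came from cells given compound for 2 h at 37° C, then final 20 ng/ml VEGF for 5 min; compound-free medium as control.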

The next assay addresses T2, FGFR3 (K650E) (Homo sapiens, UniProt P22607, K650E).
T2 construct: amino acids 411-806 of the cytoplasmic domain of human FGFR-3, N-terminally fused to GST; made in house; host or cells: Sf9 insect cells (baculovirus)
As to the kind of experiment: Recombinant GST-FGFR-3-K650E tyrosine kinase assay (33P into poly(Glu,Tyr)). The following applies: 10 μM; Examples 171 to 206; read-out: FGFR3 inhibition at 10 μM.

The target of the next assay is c-Abl (Homo sapiens, UniProt P00519). The assay is described as follows: Inhibitory activity against c-Abl (Example 207). The following applies: Examples 171 to 206.

Each structure is given as a SMILES string.

By inhibition is commonly meant the percentage by which the read-out fell short of the control.

T1 sequence (P35968 20-1356): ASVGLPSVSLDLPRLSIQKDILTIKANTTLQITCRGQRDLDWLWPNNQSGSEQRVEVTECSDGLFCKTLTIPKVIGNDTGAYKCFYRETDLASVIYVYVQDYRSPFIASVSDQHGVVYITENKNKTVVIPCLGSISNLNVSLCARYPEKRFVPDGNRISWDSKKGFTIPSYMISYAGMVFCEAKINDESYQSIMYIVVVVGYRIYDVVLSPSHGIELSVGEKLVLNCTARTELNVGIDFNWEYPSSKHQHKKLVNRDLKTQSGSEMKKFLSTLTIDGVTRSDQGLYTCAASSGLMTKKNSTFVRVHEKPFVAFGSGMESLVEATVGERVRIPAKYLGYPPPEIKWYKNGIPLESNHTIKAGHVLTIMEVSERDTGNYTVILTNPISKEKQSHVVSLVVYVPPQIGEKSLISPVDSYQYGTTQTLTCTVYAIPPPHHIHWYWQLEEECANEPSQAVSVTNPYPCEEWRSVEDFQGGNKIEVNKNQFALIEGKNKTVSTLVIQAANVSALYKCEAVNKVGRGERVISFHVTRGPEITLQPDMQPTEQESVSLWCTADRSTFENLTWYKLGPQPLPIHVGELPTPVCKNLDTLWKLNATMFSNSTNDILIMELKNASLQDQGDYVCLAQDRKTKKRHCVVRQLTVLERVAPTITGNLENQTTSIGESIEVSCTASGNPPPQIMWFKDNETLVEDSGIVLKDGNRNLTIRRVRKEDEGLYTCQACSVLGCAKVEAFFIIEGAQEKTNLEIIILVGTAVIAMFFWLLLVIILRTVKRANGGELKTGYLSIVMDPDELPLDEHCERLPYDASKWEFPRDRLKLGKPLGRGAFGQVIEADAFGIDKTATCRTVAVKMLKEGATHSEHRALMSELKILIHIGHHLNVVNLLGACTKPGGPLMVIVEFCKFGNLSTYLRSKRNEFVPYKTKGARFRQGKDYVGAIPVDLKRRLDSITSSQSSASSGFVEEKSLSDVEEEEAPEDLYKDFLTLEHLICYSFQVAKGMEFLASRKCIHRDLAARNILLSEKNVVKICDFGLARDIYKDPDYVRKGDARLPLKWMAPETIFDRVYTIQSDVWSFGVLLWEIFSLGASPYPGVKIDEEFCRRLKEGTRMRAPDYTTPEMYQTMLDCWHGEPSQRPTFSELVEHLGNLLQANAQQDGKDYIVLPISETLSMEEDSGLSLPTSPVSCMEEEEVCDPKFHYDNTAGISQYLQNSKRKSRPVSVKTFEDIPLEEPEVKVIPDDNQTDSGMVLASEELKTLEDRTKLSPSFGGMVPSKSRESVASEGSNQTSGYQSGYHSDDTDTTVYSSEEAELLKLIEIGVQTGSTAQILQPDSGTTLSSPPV
c-Abl, sequence (P00519 whole entry): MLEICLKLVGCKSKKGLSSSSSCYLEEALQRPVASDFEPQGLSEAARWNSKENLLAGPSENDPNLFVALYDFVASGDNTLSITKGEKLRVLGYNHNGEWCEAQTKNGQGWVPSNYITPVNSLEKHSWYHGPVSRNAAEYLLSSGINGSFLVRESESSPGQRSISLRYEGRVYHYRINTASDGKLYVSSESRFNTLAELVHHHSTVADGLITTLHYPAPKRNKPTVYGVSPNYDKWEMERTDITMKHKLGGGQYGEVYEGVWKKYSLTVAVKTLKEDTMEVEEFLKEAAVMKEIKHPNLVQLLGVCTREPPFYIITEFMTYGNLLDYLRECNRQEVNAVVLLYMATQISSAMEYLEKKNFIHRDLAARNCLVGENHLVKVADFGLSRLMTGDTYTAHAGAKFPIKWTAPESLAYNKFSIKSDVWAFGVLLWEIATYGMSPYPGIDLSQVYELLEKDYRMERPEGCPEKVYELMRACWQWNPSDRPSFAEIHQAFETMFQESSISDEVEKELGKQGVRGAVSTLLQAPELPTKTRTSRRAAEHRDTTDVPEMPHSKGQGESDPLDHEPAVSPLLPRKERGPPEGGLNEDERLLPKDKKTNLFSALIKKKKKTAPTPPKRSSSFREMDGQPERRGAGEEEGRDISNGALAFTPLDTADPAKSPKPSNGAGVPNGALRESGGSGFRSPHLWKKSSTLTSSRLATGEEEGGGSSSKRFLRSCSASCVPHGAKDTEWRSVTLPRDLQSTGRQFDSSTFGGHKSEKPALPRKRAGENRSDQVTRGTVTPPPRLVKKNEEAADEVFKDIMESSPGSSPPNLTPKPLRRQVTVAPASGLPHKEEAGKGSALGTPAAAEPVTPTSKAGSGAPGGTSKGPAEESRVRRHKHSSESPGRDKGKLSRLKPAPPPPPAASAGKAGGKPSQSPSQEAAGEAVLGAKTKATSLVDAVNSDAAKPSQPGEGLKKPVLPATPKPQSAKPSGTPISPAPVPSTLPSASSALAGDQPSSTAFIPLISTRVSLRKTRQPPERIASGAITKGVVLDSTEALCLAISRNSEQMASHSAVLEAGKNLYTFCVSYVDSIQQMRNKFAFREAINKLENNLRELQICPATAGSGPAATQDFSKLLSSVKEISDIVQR
T2 sequence (P22607 411-806 K650E): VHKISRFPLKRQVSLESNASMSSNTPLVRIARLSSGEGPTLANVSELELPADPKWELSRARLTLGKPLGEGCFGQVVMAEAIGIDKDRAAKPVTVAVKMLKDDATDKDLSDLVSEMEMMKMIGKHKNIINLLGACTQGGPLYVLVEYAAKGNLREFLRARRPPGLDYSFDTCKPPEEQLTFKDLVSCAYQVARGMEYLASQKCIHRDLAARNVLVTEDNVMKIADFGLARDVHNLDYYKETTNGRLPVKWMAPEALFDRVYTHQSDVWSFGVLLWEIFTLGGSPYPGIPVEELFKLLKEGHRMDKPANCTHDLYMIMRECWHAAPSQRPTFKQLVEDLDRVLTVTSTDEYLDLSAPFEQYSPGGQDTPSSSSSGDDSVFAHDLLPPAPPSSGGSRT

In the case of `Cc1ccc(NC(=O)c2cccc(C(F)(F)F)c2)cc1NC(=O)Nc1cc(Nc2ccc(OCCN3CCOCC3)cc2)ncn1` [Example 179, N-[4-Methyl-3-(3-{6-[4-(2-morpholin-4-yl-ethoxy)-phenylamino]-pyrimidin-4-yl}-ureido)-phenyl]-3-trifluoromethyl-benzamide], the inhibition at 10 µM was in the range of 87 to 100% at KDR, 56 to 98% at FGFR3 (K650E) and 79 to 100% at c-Abl.
The like results for `Cc1ccc(NC(=O)c2cccc(C(F)(F)F)c2)cc1NC(=O)Nc1cc(Nc2cccc(OCCN3CCOCC3)c2)ncn1` [Example 180, N-[4-Methyl-3-(3-{6-[3-(2-morpholin-4-yl-ethoxy)-phenylamino]-pyrimidin-4-yl}-ureido)-phenyl]-3-trifluoromethyl-benzamide] were, in that order, 87 to 100%, 56 to 98% and 79 to 100%.
The like results for `Cc1ccc(NC(=O)c2cccc(C(F)(F)F)c2)cc1NC(=O)N(C)c1cc(Nc2ccccc2)ncn1` [Example 181, N-{4-Methyl-3-[3-methyl-3-(6-phenylamino-pyrimidin-4-yl)-ureido]-phenyl}-3-trifluoromethyl-benzamide] were, in that order, 87 to 100%, 56 to 98% and 79 to 100%.
The like results for `Cc1ccc(NC(=O)c2cccc(C(F)(F)F)c2)cc1NC(=O)N(C)c1cc(Nc2cccc(OCCN(C)C)c2)ncn1` [Example 182, N-[3-(3-{6-[3-(2-Dimethylamino-ethoxy)-phenylamino]-pyrimidin-4-yl}-3-methyl-ureido)-4-methyl-phenyl]-3-trifluoromethyl-benzamide] were, in that order, 87 to 100%, 56 to 98% and 79 to 100%.
`CCN(CC)CCOc1ccc(Nc2cc(N(C)C(=O)Nc3cc(NC(=O)c4cccc(C(F)(F)F)c4)ccc3C)ncn2)cc1` [Example 183, N-[3-(3-{6-[4-(2-Diethylamino-ethoxy)-phenylamino]-pyrimidin-4-yl}-3-methyl-ureido)-4-methyl-Phenyl]-3-trifluoromethyl-benzamide]: the inhibition at 10 µM lay in the range of 87 to 100% at KDR, 56 to 98% at FGFR3 (K650E) and 79 to 100% on c-Abl.
For `Cc1ccc(NC(=O)c2cccc(C(F)(F)F)c2)cc1NC(=O)N(C)c1cc(Nc2ccc(OCCN3CCN(C)CC3)cc2)ncn1` [Example 184, N-{4-Methyl-3-[3-methyl-3-(6-{4-[2-(4-methyl-piperazin-1-yl)-ethoxy]-phenylamino}-pyrimidin-4-yl)-ureido]-phenyl}-3-trifluoromethyl-benzamide] the same measures were 87 to 100%, 56 to 98% and 79 to 100%.
For `Cc1ccc(NC(=O)c2cccc(C(F)(F)F)c2)cc1NC(=O)N(C)c1cc(Nc2cccc(OCCN3CCN(C)CC3)c2)ncn1` [Example 185, N-{4-Methyl-3-[3-methyl-3-(6-{3-[2-(4-methyl-piperazin-1-yl)-ethoxy]-phenylamino}-pyrimidin-4-yl)-ureido]-phenyl}-3-trifluoromethyl-benzamide] the same measures were 87 to 100%, 56 to 98% and 79 to 100%.
The like results for `Cc1ccc(C(=O)Nc2cccc(C(F)(F)F)c2)cc1NC(=O)N(C)c1cc(Nc2ccc(N3CCN(C)CC3)cc2)ncn1` [Example 186, 4-Methyl-3-(3-methyl-3-{6-[4-(4-methyl-piperazin-1-yl)-phenylamino]-pyrimidin-4-yl}-ureido)-N-(3-trifluoromethyl-phenyl)-benzamide] were, in that order, 87 to 100%, 56 to 98% and 79 to 100%.
Consider `Cc1ccc(NC(=O)c2cccc(C(F)(F)F)c2)cc1NC(=O)N(C)c1cc(Nc2ccc(C(=O)N3CCN(C)CC3)cc2)ncn1` [Example 187, N-[4-Methyl-3-(3-methyl-3-{6-[4-(4-methyl-piperazine-1-carbonyl)-phenylamino]-pyrimidin-4-yl}-ureido)-phenyl]-3-trifluoromethyl-benzamide], for which the inhibition at 10 µM on KDR is 87 to 100%; at FGFR3 (K650E), 56 to 98%; on c-Abl, 79 to 100%.
The like results for `Cc1ccc(NC(=O)c2cccc(C(F)(F)F)c2)cc1NC(=O)N(C)c1cc(Nc2cccc(N3CCN(C)CC3)c2)ncn1` [Example 188, N-[4-Methyl-3-(3-methyl-3-{6-[3-(4-methyl-piperazin-1-yl)-phenylamino]-pyrimidin-4-yl}-ureido)-phenyl]-3-trifluoromethyl-benzamide] were, in that order, 87 to 100%, 56 to 98% and 79 to 100%.
For `Cc1ccc(NC(=O)c2cccc(C(F)(F)F)c2)cc1NC(=O)N(CCN1CCN(C)CC1)c1cc(Nc2ccccc2)ncn1` [Example 189, N-{4-Methyl-3-[3-[2-(4-methyl-piperazin-1-yl)-ethyl]-3-(6-phenylamino-pyrimidin-4-yl)-ureido]-phenyl}-3-trifluoromethyl-benzamide] the same measures were 87 to 100%, 56 to 98% and 79 to 100%.
The like results for `Cc1ccc(NC(=O)c2cccc(C(F)(F)F)c2)cc1NC(=O)N(CCc1ccccn1)c1cc(Nc2ccccc2)ncn1` [Example 190, N-{4-Methyl-3-[3-(6-phenylamino-pyrimidin-4-yl)-3-(2-pyridin-2-yl-ethyl)-ureido]-phenyl}-3-trifluoromethyl-benzamide] were, in that order, 87 to 100%, 56 to 98% and 79 to 100%.
As to `Cc1ccc(NC(=O)c2cccc(C(F)(F)F)c2)cc1NC(=O)N(CCc1ccccn1)c1cc(Nc2ccc(N3CCN(C)CC3)cc2)ncn1` [Example 191, N-[4-Methyl-3-[3-{6-[4-(4-methyl-piperazin-1-yl)-phenylamino]-pyrimid-in-4-yl]-3-(2-pyridin-2-yl-ethyl)-ureido]-phenyl}-3-trifluoromethyl-benzamide], the inhibition at 10 µM on KDR lay in the range of 87 to 100%; at FGFR3 (K650E), 56 to 98%; on c-Abl, 79 to 100%.
For `CCN(C(=O)Nc1cc(NC(=O)c2cccc(C(F)(F)F)c2)ccc1C)c1cc(Nc2ccc(N3CCN(C)CC3)cc2)ncn1` [Example 192, N-[3-(3-Ethyl-3-{6-[4-(4-methyl-piperazin-1-yl)-phenylamino]-pyrimidin-4-yl}-ureido)-4-methyl-Phenyl]-3-trifluoromethyl-benzamide] the same measures were 87 to 100%, 56 to 98% and 79 to 100%.
For `Cc1ccc(NC(=O)c2cccc(C(F)(F)F)c2)cc1NC(=O)N(Cc1cccs1)c1cc(Nc2ccc(N3CCN(C)CC3)cc2)ncn1` [Example 193, N-[4-Methyl-3-(3-{6-[4-(4-methyl-piperazin-1-yl)-phenylamino]-pyrimid-in-4-yl}-3-thiophen-2-ylmethyl-ureido)-phenyl]-3-trifluoromethyl-benzamide] the same measures were 87 to 100%, 56 to 98% and 79 to 100%.
For `Cc1ccc(NC(=O)c2ccc(CN3CCN(C)CC3)c(C(F)(F)F)c2)cc1NC(=O)N(C)c1cc(Nc2ccccc2)ncn1` [Example 195, N-{4-Methyl-3-[3-methyl-3-(6-phenylamino-pyrimidin-4-yl)-ureido]-phenyl}-4-(4-methyl-piperazin-1-ylmethyl)-3-trifluoromethyl-benzamide] the same measures were 87 to 100%, 56 to 98% and 79 to 100%.
As for `COc1ccc(N)cc1NC(=O)N(C)c1cc(Nc2ccc(N3CCN(C)CC3)cc2)ncn1` [Example 196, 3-(5-Amino-2-methoxy-phenyl)-1-methyl-1-{6-[4-(4-methyl-piperazin-1-yl)-phenylamino]-pyrimidin-4-yl}-urea], the inhibition at 10 µM fell in the range of 87 to 100% at KDR, 56 to 98% on FGFR3 (K650E) and 79 to 100% against c-Abl.
For `COc1ccc(NC(=O)c2cccc(C(F)(F)F)c2)cc1NC(=O)N(C)c1cc(Nc2ccc(N3CCN(C)CC3)cc2)ncn1` [Example 197, N-[4-Methoxy-3-(3-methyl-3-{6-[4-(4-methyl-Piperazin-1-yl)-phenylamino]-pyrimidin-4-yl}-ureido)-phenyl]-3-trifluoromethyl-benzamide] the same measures were 87 to 100%, 56 to 98% and 79 to 100%.
For `COc1ccc(NC(=O)c2ccc(CN3CCN(C)CC3)c(C(F)(F)F)c2)cc1NC(=O)N(C)c1cc(Nc2ccc(N3CCN(C)CC3)cc2)ncn1` [Example 198, N-[4-Methoxy-3-(3-methyl-3-{6-[4-(4-methyl-piperazin-1-yl)-phenyl-amino]-pyrimidin-4-yl}-ureido)-phenyl]-4-(4-methyl-piperazin-1-ylmethyl)-3-trifluoro-methyl-benzamide] the same measures were 87 to 100%, 56 to 98% and 79 to 100%.
For `COc1cc(NC(=O)c2ccc(CN3CCN(C)CC3)c(C(F)(F)F)c2)cc(NC(=O)N(C)c2cc(N)ncn2)c1` [Example 199, N-{3-[3-(6-Amino-pyrimidin-4-yl)-3-methyl-ureido]-5-methoxy-phenyl}-4-(4-methyl-piperazin-1-ylmethyl)-3-trifluoromethyl-benzamide] the same measures were 87 to 100%, 56 to 98% and 79 to 100%.

The record behind these values is US8552002B2 (Novartis AG, priority 2004, dated 2013).
